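Cultured in 96-well plates, cells were exposed to test compound for 48 hours across five concentrations. The concentration for 50% growth inhibition is given as GI50.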 The source made the active and inactive calls. Rule as the data show it: active = GI50 up to about 1.1 µM and inactive = higher.
Tests used:
Assay in all cases: NCI-60 cell line screen, 48 h
SK-MEL-5 = tested on: SK-MEL-5
HOP-92 = tested on: HOP-92
A549 = tested on: A549
UO-31 = tested on: UO-31
KM12 = tested on: KM12
HT-29 = tested on: HT-29
RPMI-8226 = tested on: RPMI-8226
786-0 = tested on: 786-0
SK-MEL-28 = tested on: SK-MEL-28
SN12C = tested on: SN12C
DU-145 = tested on: DU-145
OVCAR-4 = tested on: OVCAR-4
SNB-19 = tested on: SNB-19
EKVX = tested on: EKVX
SF-295 = tested on: SF-295
HCC 2998 = tested on: HCC 2998
TK-10 = tested on: TK-10
HCT-116 = tested on: HCT-116
HOP-62 = tested on: HOP-62
RXF 393 = tested on: RXF 393
HCT-15 = tested on: HCT-15
U-251 = tested on: U-251
IGROV-1 = tested on: IGROV-1
MDA-MB-231 = tested on: MDA-MB-231
SK-OV-3 = tested on: SK-OV-3
SF-539 = tested on: SF-539
SW-620 = tested on: SW-620
UACC-257 = tested on: UACC-257
ACHN = tested on: ACHN
A498 = tested on: A498
SF-268 = tested on: SF-268
HL-60 = tested on: HL-60
LOX IMVI = tested on: LOX IMVI
Hs-578T = tested on: Hs-578T
MOLT-4 = tested on: MOLT-4
CAKI-1 = tested on: CAKI-1
T47D = tested on: T47D
M14 = tested on: M14
SNB-75 = tested on: SNB-75
BT-549 = tested on: BT-549
K562 = tested on: K562
NCI-H460 = tested on: NCI-H460
NCI/ADR-RES = tested on: NCI/ADR-RES
CCRF-CEM = tested on: CCRF-CEM
MDA-MB-435 = tested on: MDA-MB-435
NCI-H23 = tested on: NCI-H23
SR = tested on: SR
PC-3 = tested on: PC-3
OVCAR-8 = tested on: OVCAR-8
NCI-H226 = tested on: NCI-H226
MCF7 = tested on: MCF7
MDA-N = tested on: MDA-N
NCI-H522 = tested on: NCI-H522
SK-MEL-2 = tested on: SK-MEL-2
UACC-62 = tested on: UACC-62
COLO 205 = tested on: COLO 205
OVCAR-3 = tested on: OVCAR-3
Malme-3M = tested on: Malme-3M
OVCAR-5 = tested on: OVCAR-5

Measured: GI50

Cc1cc(S(=O)(=O)Nc2nnc3cc(C(F)(F)F)cc(C)n23)c(S)cc1Cl
inactive: SK-MEL-5 64.4 µM | HOP-92 > 76.9 µM | A549 21.3 µM | UO-31 39.1 µM | KM12 45.6 µM | HT-29 > 100 µM | RPMI-8226 > 100 µM | 786-0 > 80.5 µM | SK-MEL-28 > 100 µM | SN12C > 100 µM | DU-145 > 100 µM | OVCAR-4 > 100 µM | SNB-19 27.5 µM | EKVX > 100 µM | SF-295 55.1 µM | HCC 2998 33.7 µM | TK-10 > 100 µM | HCT-116 > 81.8 µM | HOP-62 35.2 µM | RXF 393 > 100 µM | U-251 29 µM | IGROV-1 > 100 µM | MDA-MB-231 > 83 µM | SK-OV-3 38.3 µM | SF-539 34.4 µM | SW-620 > 100 µM | UACC-257 > 100 µM | ACHN > 100 µM | A498 18.9 µM | SF-268 > 100 µM | HL-60 > 100 µM | LOX IMVI > 100 µM | Hs-578T > 72.4 µM | MOLT-4 > 100 µM | CAKI-1 97.5 µM | T47D > 100 µM | M14 77.3 µM | SNB-75 > 71.1 µM | BT-549 > 35.2 µM | K562 > 100 µM | NCI-H460 19.5 µM | NCI/ADR-RES 45.5 µM | CCRF-CEM > 100 µM | MDA-MB-435 > 65.8 µM | NCI-H23 > 100 µM | SR > 100 µM | PC-3 > 95.3 µM | OVCAR-8 > 100 µM | NCI-H226 > 54.6 µM | MCF7 > 31.6 µM | MDA-N > 100 µM | NCI-H522 > 100 µM | SK-MEL-2 30.7 µM | UACC-62 56.4 µM | COLO 205 > 100 µM | OVCAR-3 64.1 µM | Malme-3M > 100 µM | OVCAR-5 > 84.9 µM
> 91.6 µM: HCT-15

Cc1c(C)c(C)c(-n2c(=O)n(C)c(=O)n2-c2cc(C(C)(C)C)cc(C(C)(C)C)c2O)c(C)c1C
8.43 µM: HCT-15
inactive: SK-MEL-5 6.21 µM | HOP-92 5.5 µM | A549 5.66 µM | UO-31 3.08 µM | KM12 11.8 µM | HT-29 3.64 µM | RPMI-8226 4.63 µM | 786-0 10.4 µM | SK-MEL-28 13.7 µM | SN12C 9.44 µM | DU-145 12.7 µM | OVCAR-4 7.28 µM | SNB-19 5.74 µM | EKVX 10.5 µM | SF-295 8.99 µM | HCC 2998 9.93 µM | TK-10 10.1 µM | HCT-116 5.79 µM | HOP-62 14.4 µM | RXF 393 2.97 µM | U-251 6.95 µM | IGROV-1 10.1 µM | MDA-MB-231 3.91 µM | SK-OV-3 12.4 µM | SF-539 10.5 µM | SW-620 13.6 µM | UACC-257 9.66 µM | ACHN 12.2 µM | A498 13.1 µM | SF-268 12.4 µM | HL-60 3.04 µM | LOX IMVI 13.6 µM | Hs-578T 10.4 µM | MOLT-4 4.18 µM | CAKI-1 11.7 µM | T47D 4.89 µM | M14 10.2 µM | SNB-75 4.14 µM | BT-549 13.5 µM | K562 6.21 µM | NCI-H460 11.4 µM | NCI/ADR-RES 8.38 µM | CCRF-CEM 8.13 µM | MDA-MB-435 11.9 µM | NCI-H23 7.91 µM | SR 3.91 µM | PC-3 3.03 µM | OVCAR-8 10.4 µM | NCI-H226 8.32 µM | MCF7 4.06 µM | MDA-N 10.5 µM | NCI-H522 4.54 µM | SK-MEL-2 6.47 µM | UACC-62 11.1 µM | COLO 205 7.19 µM | OVCAR-3 4.68 µM | Malme-3M 11.9 µM | OVCAR-5 13.3 µM
